Laboratory results taken from US20090123377A1, “Method for Testing Substances or Mixtures of Substances,Use of Said Method and Corresponding Test Kits” (BASF AKTIENGESELLSCHAFT, priority 2005, published 2009).
Like-named read-outs stand apart in the source and are kept apart here.

What was measured:
L-FABP = conditions: rat, in vivo
[1] = tested on: liver fatty acid binding protein (L-FABP); test: Proteomic analysis (2D gel electrophoresis) of L-FABP expression in liver of exposed rats; conditions: for L-FABP (PHEN_M_ID=3368, ETHI_F_ID=4302, HEXA_F_ID=4425) spot under the influence of treatment: 2D gel, rat liver, after 10 d (RUN2), PHEN_M male, ETHI_F and HEXA_F female rats; for amount of L-FABP in the liver, early change: after only a few hours of exposure, male animals (phenobarbital), females (alpha-hexachlorocyclohexane); for expression in the liver of L-FABP (ETHI_F_ID 4302) compared with the controls: longer exposure time and higher dosage, dose-dependent, statistical analysis of 2D gels
[2] = tested on: liver fatty acid binding protein (L-FABP); conditions: rat, in vivo

With Cc1c(N)cccc1N [2,6-diaminotoluene] the “L-FABP level by Western blotting” value (L-FABP) was “no change in the L-FABP level”.

With c1ccoc1 [furan] the “L-FABP level by Western blotting” value (L-FABP) was “decrease in L-FABP”.

For ClC(Cl)(Cl)Cl [tetrachloromethane], the “L-FABP level by Western blotting” value (L-FABP) was “decrease in L-FABP”.

With Cl[C@H]1[C@H](Cl)[C@H](Cl)[C@@H](Cl)[C@H](Cl)[C@H]1Cl [alpha-hexachlorocyclohexane] the “L-FABP level by Western blotting” value (L-FABP) was “confirm the results of the proteomic analysis”, the “L-FABP (PHEN_M_ID=3368, ETHI_F_ID=4302, HEXA_F_ID=4425) spot under the influence of treatment” value (from here on “L-FABP … of treatment”) [1] was “disappears” and the “amount of L-FABP in the liver, early change” value [1] was “changed”. The “expression in the liver of L-FABP (ETHI_F_ID 4302) compared with the controls” value (from here on “expression … compared with the controls”) [1] was “significantly less expression”.

C#C[C@]1(O)CC[C@H]2[C@@H]3CCc4cc(O)ccc4[C@H]3CC[C@@]21C [ethinylestradiol] was tested, and the “L-FABP … of treatment” value [2] was “disappears” and the “expression … compared with the controls” value [2] was “significantly less expression”.

For CCC1(c2ccccc2)C(=O)NC(=O)NC1=O [phenobarbital], the “L-FABP level by Western blotting” value (L-FABP) was “confirm the results of the proteomic analysis”, the “L-FABP … of treatment” value [1] was “disappears” and the “amount of L-FABP in the liver, early change” value [1] was “changed”. For the same compound, the “expression … compared with the controls” value [1] was “significantly less expression”.

Cc1ccc(N)cc1N [2,4-diaminotoluene] was tested, and the “L-FABP level by Western blotting” value (L-FABP) was “no change in the L-FABP level”.
